Molecules are shown by their SMILES.

The values below come from US5610174A, “Use of α1A -selective adrenoceptor agonists for the treatment of urinary incontinence” (priority 1995, dated 1997).

One test deals with T1, human 5-HT2 receptor (Homo sapiens, UniProt P28223).
T1 construct: expressed in transfected cells; host or cells: COS-7 cells (text also names deposited cell line L-NGC-5-HT2, ATCC CRL 10287)
As to the kind of experiment: Radioligand binding at human 5-HT2. The note with it: [3H]ketanserin; read-out: pKi 5-HT2 (converted). On the procedure: The coding sequence of the human 5-HT2 receptor was obtained from a human brain cortex cDNA library, and cloned into the cloning site of pCEXV-3 eukaryotic expression vector. This construct was transfected into COS-7 cells by the DEAE-dextran method. Cells were harvested after 72 hours and lysed by sonication in 5 mM Tris-HCl, 5 mM EDTA, pH 7.5. This cell line was deposited with the ATCC on Oct. […] The cell lysates were centrifuged at 1000 rpm for 5 minutes at 4° C., and the supernatant was centrifuged at 30,000×g for 20 minutes at 4° C. The pellet was suspended in 50 mM Tris-HCl buffer (pH 7.7 at room temperature) containing 10 mM MgSO4, 0.5 mM EDTA, and 0.1% ascorbate. […] Nonspecific binding was defined by the addition of 10 μM mianserin. The bound radioligand was separated by filtration through GF/B filters using a cell harvester.

The next test deals with α2-adrenoceptors. As to the kind of experiment: Activity at human α2-adrenoceptors (overall statement). The note with it: result in words. It counts as cell-based. On the procedure: α2 -Adrenoceptor-Mediated Inhibition of Forskolin Stimulated Adenylyl Cyclase
The agonist activity of test compounds was assayed by measuring their ability to inhibit adenylyl cyclase in cells stably transfected with each of the three cloned human α2 -adrenoceptors. LM(tk-) cells expressing the α2A - or the α2C -, as well as Y1 cells expressing the α2B -adrenoceptor were used. […] The formation of cyclic AMP was measured in cultures incubated with DMEM containing 1 mM theophylline. Twelve concentrations of the test compounds (from 10 pM to 100 μM) were added to the incubation medium and incubated at 37° C. for 20 min. Following this incubation step, 10 μM forskolin was added to stimulate the formation of cyclic AMP, and the cultures were incubated for another 10 min. The reaction was stopped by replacing the incubation medium with 100 mM HCl . The intracellular levels of cyclic AMP were measured by radioimmunoassay. The data from concentration-response curves was fitted to a four-parameter logistic equation, by non-linear regression analysis, to determine the pEC50 and intrinsic activity.

Test [1] concerns the target T2, rabbit urethra, female (α1-adrenoceptor) (Oryctolagus cuniculus, UniProt O02824).
T2 construct: proximal urethra of male humans and male and female rabbits; from tissue; host or cells: rabbit proximal urethra strips, male or female
T2 sequence (O02824 1-466): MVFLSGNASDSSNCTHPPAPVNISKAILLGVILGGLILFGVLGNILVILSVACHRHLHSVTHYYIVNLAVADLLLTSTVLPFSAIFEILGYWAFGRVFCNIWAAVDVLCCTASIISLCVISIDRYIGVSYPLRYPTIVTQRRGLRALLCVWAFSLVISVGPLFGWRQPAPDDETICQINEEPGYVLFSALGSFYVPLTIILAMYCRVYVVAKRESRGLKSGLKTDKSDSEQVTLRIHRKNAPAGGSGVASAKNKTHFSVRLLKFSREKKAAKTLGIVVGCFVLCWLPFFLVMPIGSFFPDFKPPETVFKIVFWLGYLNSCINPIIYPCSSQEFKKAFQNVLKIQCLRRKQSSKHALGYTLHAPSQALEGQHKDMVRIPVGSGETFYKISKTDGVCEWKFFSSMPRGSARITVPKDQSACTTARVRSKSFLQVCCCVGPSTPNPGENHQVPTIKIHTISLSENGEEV
The test can be described thus: Contractile study in isolated female rabbit urethra. The note with it: versus phenylephrine-induced contraction; read-out: pKB Rabbit Urethra Female (converted). An excerpt:
(§1) In addition, similar studies were done using bladder neck tissue from female dogs. In order to identify the specific receptor subtype in each tissue, the pharmacological profile was compared to the profiles for these same drugs at the cloned human α1A, α1B, or α1C subtypes.
(§2) Tissue samples from the proximal urethra of male humans and male and female rabbits, as well as tissue samples from both the proximal urethra and bladder neck of male and female dogs were cut into transverse strips (3×10 mm) and suspended under 0.5 g tension in Krebs' physiological buffer at 37° C. To determine agonist potency (pEC50 )and antagonist affinity constants (pKB), concentration-effect curves to the non-selective agonist phenylepherine were constructed in the absence and in the presence of increasing concentrations of the antagonist. Up to four sequential curves were constructed in each tissue. Antagonists were allowed to equilibrate for 1h before each concentration-effect curve, and the drugs were completely washed out in between successive curves. In each experiment, one tissue served as a "time control", in which no antagonist was added so that changes in tissue sensitivity could be assessed as a function of time. […] In instances in which a single concentration of antagonist was used, pKB values were determined by the equation: […], where CR is defined as the ratio of the agonist EC50 in the presence of the antagonist to that in the absence of the antagonist.

The target of test [2] is T3, dog BN, male (α1-adrenoceptor) (Canis lupus, UniProt A0A8I3NK63).
T3 sequence (A0A8I3NK63 1-466): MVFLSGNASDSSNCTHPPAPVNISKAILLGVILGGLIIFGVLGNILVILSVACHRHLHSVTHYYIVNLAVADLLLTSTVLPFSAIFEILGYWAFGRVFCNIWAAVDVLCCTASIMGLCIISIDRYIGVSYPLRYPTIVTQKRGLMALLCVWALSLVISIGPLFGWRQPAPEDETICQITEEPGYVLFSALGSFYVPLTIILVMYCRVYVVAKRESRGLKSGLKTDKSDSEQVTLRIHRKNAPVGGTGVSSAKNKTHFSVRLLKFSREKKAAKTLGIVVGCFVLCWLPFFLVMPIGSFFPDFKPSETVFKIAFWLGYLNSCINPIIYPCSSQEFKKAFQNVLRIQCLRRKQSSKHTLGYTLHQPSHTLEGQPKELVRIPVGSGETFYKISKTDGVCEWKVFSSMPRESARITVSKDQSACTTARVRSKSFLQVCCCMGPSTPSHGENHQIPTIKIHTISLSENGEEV
As to the kind of experiment: Contractile study in isolated male dog bladder neck. The note with it: versus phenylephrine-induced contraction.
Source text: as §1, §2

Test [3] has as its target T4, rabbit urethra, male (α1-adrenoceptor) (Oryctolagus cuniculus, UniProt O02824).
T4 sequence (O02824 1-466): T2 sequence (O02824 1-466)
As to the kind of experiment: Contractile study in isolated male rabbit urethra. The note with it: versus phenylephrine-induced contraction.
Source text: as §1, §2

T1 sequence (P28223 whole entry): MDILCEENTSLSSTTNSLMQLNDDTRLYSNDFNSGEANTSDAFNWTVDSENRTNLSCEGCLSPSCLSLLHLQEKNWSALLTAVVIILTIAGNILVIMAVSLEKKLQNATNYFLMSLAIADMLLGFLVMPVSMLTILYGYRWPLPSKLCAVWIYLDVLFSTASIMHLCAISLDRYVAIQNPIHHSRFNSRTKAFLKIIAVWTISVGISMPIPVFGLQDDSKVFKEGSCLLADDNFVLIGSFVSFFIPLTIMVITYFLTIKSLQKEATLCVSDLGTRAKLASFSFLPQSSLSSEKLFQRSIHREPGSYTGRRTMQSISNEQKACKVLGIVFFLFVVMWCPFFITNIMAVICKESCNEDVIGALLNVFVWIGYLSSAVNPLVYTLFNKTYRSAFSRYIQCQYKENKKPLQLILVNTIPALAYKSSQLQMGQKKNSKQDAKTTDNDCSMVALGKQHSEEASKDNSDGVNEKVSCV

For the compound `COc1ccc(SC)c2c1C[C@@H]1[C@@H](C2)OCCN1C` (relative stereo) [SDZ NVI-085, (±)-trans-4-Methyl-6-methoxy-9-thiomethoxy-3,4,4a, 5,10,10a-hexahydro-2H-naphtho[2,3-b][1,4]oxazine], at human 5-HT2 receptor, the Ki is 0.316 µM.
Consider `CS(=O)(=O)Nc1c(O)ccc2c1CCCC2C1=NCCN1` (racemic) [Compound A-61603, (±)-N-[5-(4,5-Dihydro-1H-imidazol-2-yl)-2-hydroxy-5,6,7,8-tetra-hydronaphthalen-1-yl]methanesulfonamide], for which the Ki at human 5-HT2 receptor was 50.1 µM. For the same compound, the “activity at α2-adrenoceptors” value in the test with α2-adrenoceptors was “significant activity”.
Turning to `COc1ccccc1N1CCN(CCCNc2c(C)c(=O)n(C)c(=O)n2C)CC1` [Compound 5-MU], the Kb in test [1] is 0.0398 µM. The “pKB Dog BN Male” value in test [2] turned out to be 8.7. In addition, in test [3], the “pKB Rabbit Urethra Male” value was determined as 7.8.
For `COc1cc2c(cc1OC)CN(c1cc(N)c3cc(OC)c(OC)cc3n1)CC2` [Abanoquil, 2-(6,7-Dimethoxy-3,4-dihydro-1H-isoquinolin-2-yl)-6,7-dimethoxyquinolin-4-ylamine hemifumarate hydrate], the Kb in test [1] is 0.002 µM. For the same compound, the “pKB Dog BN Male” value in test [2] is on record as 8.6. In addition, the “pKB Rabbit Urethra Male” value in test [3] worked out at 8.7.
For `CNCCc1ccc(O)c(NS(C)(=O)=O)c1` [SK&F 102652], in the test on α2-adrenoceptors, the “activity at α2-adrenoceptors” value is recorded as “significant activity”.
